This assay has as its system Methylophilus methylotrophus amidase (acylamide amidohydrolase EC No. 3-5-1-4). As to the kind of experiment: Methylophilus methylotrophus amidase properties (Km). The note with it: substrate of the amidase; conditions not given. Format: biochemical.

Drawing on patent publication US5188952A, “Process for the decomposition of acrylamide” (Imperial Chemical Industries PLC, priority 1986, dated 1993), this text covers Km for two compounds.

SMILES strings stand for the structures.

One may read the Km as the concentration of substrate that gives half-maximal velocity. In the case of `CC(N)=O` [Acetamide], the Km is 0.2 mM.

Regarding `C=CC(N)=O` [Acrylamide], the Km came to 10 mM.
